US4395399A, “Glycopeptides and method for preparing same” (Institut Bioorganicheskoi Khimii Imeni M.M. Shemyakina …, priority 1977, dated 1983)
Where two headings read alike, the source gives them in different places. Where a SMILES comes first, the peptide text is derived from it. [ ]: non-standard residue; d: D form.

Test system: 8-day Krocker sarcoma (S-180)
Details: for Necrotic reaction shown after 24 h, number of animals / Death of animals / Inhibition of the tumor growth, % of the control: intravenous; for Necrotic reaction shown after 24 h, number of animals: mice with 8-day sarcoma S-180, 24 h; for Death of animals / Necrosis caused by constituent components of the glycopeptides: mice with sarcoma S-180; for Inhibition of the tumor growth, % of the control: tumor volume or weight after 4-5 days
[1] = single intravenous dose 100 mg/kg

Row | Compound | Necrotic reaction shown after 24 h, number of animals (dose 50 mg/kg) | Inhibition of the tumor growth, % of the control (dose 50 mg/kg) | Necrotic reaction shown after 24 h, number of animals (dose 100 mg/kg) | Death of animals (dose 100 mg/kg) | Inhibition of the tumor growth, % of the control (dose 100 mg/kg) | Necrotic reaction shown after 24 h, number of animals (dose 250 mg/kg) | Death of animals (dose 250 mg/kg) | Inhibition of the tumor growth, % of the control (dose 250 mg/kg) | Necrosis caused by constituent components of the glycopeptides | other results
1 | CC(=O)NC1C(OC2C(CO)OC(O)C(NC(C)=O)C2OC(C)C(=O)NC(C)C(=O)NC(CCC(=O)O)C(N)=O)OC(CO)C(O)C1O [Compound II, N-acetylglucosaminyl/1→4/N-acetylmuramyl-alanyl-D-isoglutamine] | 8/10 | 12 % of the control | 4/5 | 0 | 70 % of the control | – | – | – | – | Death of animals (dose 50 mg/kg): 0; Hemopoiesis [1]: not inhibited; Number of leukocytes [1]: substantially increased; Signs of toxicity [1]: no signs of toxicity are noticed; Test animals with selective necrosis of the tumor tissue covering substantially the entire tumor (single intravenous dose 100 mg/kg, 24 hours after administration): four out of five; Inhibition of the growth of the malignant tumor as compared to the control animals (single intravenous dose 100 mg/kg, after 5 days): 70%
2 | CC(=O)NC1C(OC2C(CO)OC(O)C(NC(C)=O)C2OC(C)C(=O)NC(C)C(=O)NC(CCC(=O)O)C(=O)O)OC(CO)C(O)C1O [III, N-acetylglucosaminyl/1→4/N-acetylmuramyl-alanyl-D-glutamic acid] | 4/10 | – | 3/5 | – | – | – | – | – | – | –
3 | CC(=O)N[C@H]1C(O[C@H]2[C@H](O[C@H](C)C(=O)O)[C@@H](NC(C)=O)C(O[C@H]3[C@H](O)[C@@H](NC(C)=O)C(O[C@H]4[C@H](O[C@H](C)C(=O)O)[C@@H](NC(C)=O)C(O)O[C@@H]4CO)O[C@@H]3CO)O[C@@H]2CO)O[C@H](CO)[C@@H](O)[C@@H]1O (stereo partly shown) [IX, N-acetylglucosaminyl /1→4/-N-acetylmuramyl/1→4/N-acetylglucosaminyl/1→4/N- acetylmuramic acid] | – | – | – | – | – | 0/10 | 0 | 0 % of the control | not caused | –
4 | CC(=O)N[C@H]1C(O)O[C@H](CO)[C@@H](O)[C@@H]1O (stereo partly shown) [VI, N-acetylglucosamine] | – | – | – | – | – | 0.5 | 0 | 0 % of the control | not caused | –
5 | CC(=O)N[C@H]1C(O)O[C@H](CO)[C@@H](O)[C@@H]1O[C@H](C)C(=O)O (stereo partly shown) [VII, N-acetylmuramic acid] | – | – | 0/8 | 0 | 37 % of the control | 0/8 | 25 | 52 % of the control | not caused | –
6 | CC(=O)N[C@H]1C(O[C@H]2[C@H](O[C@H](C)C(=O)O)[C@@H](NC(C)=O)C(O)O[C@@H]2CO)O[C@H](CO)[C@@H](O)[C@@H]1O (stereo partly shown) [VIII, N-acetylglucosaminyl/1→4/N-acetylmuramic acid] | – | – | 0/10 | 0 | 0 % of the control | 0/10 | 0 | 0 % of the control | not caused | –
7 | C[C@H](N)C(=O)N[C@H](CCC(=O)O)C(N)=O [X, Ala-D-Glu-NH2] (H-Ala-[dE]-NH2) | – | – | 0/10 | 0 | +28 % of the control | – | – | – | not caused | –
8 | C[C@H](N)C(=O)N[C@H](CCC(=O)O)C(=O)O [XI, Ala-D-Glu] (H-Ala-[dE]-OH) | – | – | 0/8 | 0 | 37.3 % of the control | – | – | – | not caused | –
9 | /1→4/-bis-[N-acetylglucosaminyl/1→4/N-acetylmuramyl-alanyl-D- isoglutamine] [V] | 3/5 | 66 % of the control | – | – | – | – | – | – | – | Death of animals (dose 50 mg/kg): 0
10 | Amide of N^ε [Alanyl-D-glutamyl-D-iso-asparaginyl]-lysyl-D-alanine [XII] | – | – | – | – | – | 0/5 | – | 0 % of the control | – | –
11 | N-acetyl-glucosaminyl/1→4/N-acetylmuramylalanine [Compound I] | 2/5 | 17 % of the control | 3/5 | 0 | 19 % of the control | – | – | – | – | Death of animals (dose 50 mg/kg): 0
12 | amide of N^ε -[N-acetylglucosaminyl/1→4/N-acetylmuramyl-alanyl-D-glutamyl-D-iso- asparaginyl]-lysyl-D-alanine [IV] | 3/5 | 23 % of the control | 3/5 | – | 41 % of the control | – | – | – | – | –
